{
  "source": "patent US11547655B2",
  "about": "“Use of an extract of the pericarp of Nephelium lappaceum for hydrating the skin and/or mucous membranes” (BASF Beauty Care Solutions France S.A.S., priority 2017, dated 2023)",
  "system": "involucrin",
  "assay": "Involucrin synthesis in normal human keratinocytes, ELISA assay",
  "format": "cell-based",
  "conditions": "for MEAN (% involucrin detected): relative to the control, n=3; for stimulation of involucrin synthesis: at the concentrations tested, corresponding to those present in the cosmetic ingredient of example 4",
  "procedure": "Normal, that is to say non-pathological, human keratinocytes were cultured in an MCDB153 medium (Dutscher France) containing 2% of fetal calf serum. After culture for 3 days at 37° C., the growth medium was replaced with MCDB153 medium containing various final concentrations of extract of N. lappaceum (by weight relative to the total volume of the medium) or without extract (Control) (table 1). The culture medium was replaced then solubilized in an extraction buffer. The amount of involucrin was quantified by ELISA assay. The results obtained are expressed as % relative to the control (n=3) (MEAN: mean; SD: Standard deviation).\nNormal, that is to say non-pathological, human keratinocytes were cultured in an MCDB153 medium (Dutscher France) containing 2% of fetal calf serum. After culture for 3 days at 37° C., the growth medium was replaced with MCDB153 medium containing two final concentrations of ellagic acid or of geranin (w/v final medium) or without ellagic acid or without geranin (Control) (table 3). The culture medium was replaced. The amount of involucrin was quantified by ELISA assay. The results obtained are expressed as % relative to the control (n=3).",
  "data": [
    {"compound": "O=c1oc2c(O)c(O)cc3c(=O)oc4c(O)c(O)cc1c4c23", "note": "[Ellagic acid, ellagic acid]", "values": [
      {"measurement": "MEAN (% involucrin detected)", "setting": "1.1 × 10^−4% (w/v medium)", "result": 68, "unit": "%"},
      {"measurement": "MEAN (% involucrin detected)", "setting": "1.9 × 10^−4% (w/v medium)", "result": 32, "unit": "%"},
      {"measurement": "stimulation of involucrin synthesis", "result": "Neither ellagic acid nor geranin stimulated involucrin synthesis"}
    ]},
    {"compound": "O=C1O[C@H]2[C@@H]3OC(=O)c4cc(O)c(O)c(O)c4-c4c(cc(O)c(O)c4O)C(=O)OC[C@H]2O[C@@H](OC(=O)c2cc(O)c(O)c(O)c2)[C@@H]3OC(=O)c2cc(O)c(O)c3c2[C@@H]2C1=CC(=O)[C@](O)(O3)C2(O)O", "note": "[Geranin, geranin]", "values": [
      {"measurement": "MEAN (% involucrin detected)", "setting": "1.5 × 10^−3% (w/v medium)", "result": 29, "unit": "%"},
      {"measurement": "MEAN (% involucrin detected)", "setting": "9 × 10^−4% (w/v medium)", "result": 78, "unit": "%"},
      {"measurement": "stimulation of involucrin synthesis", "result": "Neither ellagic acid nor geranin stimulated involucrin synthesis"}
    ]}
  ]
}
